Data: ChEMBL document CHEMBL1153695, “Asymmetrical diaromatic guanidinium/2-aminoimidazolinium derivatives: synthesis and DNA affinity” (J Med Chem, 2009)

Columns and labels:
Format in all cases: nucleic-acid assay
[1] = tested on: Nucleic Acid; experiment: Binding affinity to Salmon sperm DNA in phosphate buffer assessed as change in melting temperature; settings: Oncorhynchus
[2] = tested on: Nucleic Acid; experiment: Binding affinity to Poly(dA).Poly(dT) DNA in MES buffer assessed as change in melting temperature
[3] = tested on: Nucleic Acid; experiment: Binding affinity to Poly(dA.dT)2 DNA in phosphate buffer assessed as change in melting temperature

| ΔTm [1] [°C] | ΔTm [2] [°C] | ΔTm [3] [°C] | SMILES |
| --- | --- | --- | --- |
| 5 | – | – | N=C(N)Oc1ccc(Sc2ccc(OC(=N)N)cc2)cc1 |
| 2 | – | – | N=C(N)Nc1ccc(N2CCN(c3ccc(N)cc3)CC2)cc1 |
| 1 | – | – | Nc1ccc(N2CCN(c3ccc(N=C4NCCN4)cc3)CC2)cc1 |
| 2 | – | – | N=C(N)Nc1ccc(Nc2ccc(N)cc2)cc1 |
| 4 | – | – | Nc1ccc(NC(=O)Nc2ccc(N=C3NCCN3)cc2)cc1 |
| 0 | – | – | N=C(N)Nc1ccc(CCc2ccc(N)cc2)cc1 |
| 0 | – | – | Nc1ccc(CCc2ccc(N=C3NCCN3)cc2)cc1 |
| 7 | 23 | 9 | N=C(N)Nc1ccc(Sc2ccc(N=C3NCCN3)cc2)cc1 |
| 2 | – | – | N=C(N)Nc1ccc(Sc2ccc(N)cc2)cc1 |
| 2 | – | – | Nc1ccc(Nc2ccc(N=C3NCCN3)cc2)cc1 |
| 9 | 31.1 | 15 | N=C(N)Nc1ccc(N2CCN(c3ccc(N=C4NCCN4)cc3)CC2)cc1 |
| 0 | – | – | Nc1ccc(Oc2ccc(N=C3NCCN3)cc2)cc1 |
| 2 | – | – | N=C(N)Nc1ccc(Oc2ccc(N)cc2)cc1 |
| 0 | – | – | N=C(N)Nc1ccc(C(=O)c2ccc(N)cc2)cc1 |
| 12 | 35.1 | 17.5 | N=C(N)Nc1ccc(Nc2ccc(N=C3NCCN3)cc2)cc1 |
| 2 | – | – | N=C(N)Oc1ccc(Sc2ccc(O)cc2)cc1 |
| 6 | 17.2 | 6 | N=C(N)Nc1ccc(Cc2ccc(N=C3NCCN3)cc2)cc1 |
| 8 | 29 | 16 | N=C(N)Nc1ccc(CCc2ccc(N=C3NCCN3)cc2)cc1 |
| 4 | – | – | N=C(N)Oc1ccc(Oc2ccc(O)cc2)cc1 |
| 11.5 | 30 | 14 | N=C(N)Nc1ccc(NC(=O)Nc2ccc(N=C3NCCN3)cc2)cc1 |
| 3 | – | – | Nc1ccc(Cc2ccc(N=C3NCCN3)cc2)cc1 |
| 7 | 25.3 | 10 | N=C(N)Nc1ccc(Oc2ccc(N=C3NCCN3)cc2)cc1 |
| 8 | 32 | 15 | N=C(N)Nc1ccc(C(=O)c2ccc(N=C3NCCN3)cc2)cc1 |
| 6 | – | – | N=C(N)Oc1ccc(Oc2ccc(OC(=N)N)cc2)cc1 |
| 4 | – | – | N=C(N)Oc1ccc(Cc2ccc(OC(=N)N)cc2)cc1 |
| 3 | – | – | N=C(N)Nc1ccc(Cc2ccc(N)cc2)cc1 |
| 2 | – | – | N=C(N)Oc1ccc(Cc2ccc(O)cc2)cc1 |
| 2 | – | – | N=C(N)Nc1ccc(NC(=O)Nc2ccc(N)cc2)cc1 |
| 0 | – | – | Nc1ccc(Sc2ccc(N=C3NCCN3)cc2)cc1 |

| SMILES | ΔTm [1] [°C] | ΔTm [2] [°C] | ΔTm [3] [°C] |
| --- | --- | --- | --- |
| Cn1cc(NC(=O)c2cc(NC(=O)CNC(=N)N)cn2C)cc1C(=O)NCCC(=N)N | – | – | 39 |
